Marks after values point to notes of the source that are not given here.
How the values were obtained:
[1] = test system: neuron apoptosis-operated rats; experiment: Example 1 forelimb placing test; type: in vivo, Sprague-Dawley (SD) rats
Experimental: (§1) Sensorimotor function was evaluated by use of limb placing de Ryck M et al., Stroke. 20:1383-90(1989)) and body swing (Borlongan and Sanberg, J Neurosci. 15:5372-8(1995)) tests. These tests were performed one day before neuron apoptosis to obtain a baseline and then at 1, 3, 7, 14, 21 and 28 days after neuron apoptosis. Behavioral tests were done before drug administration on days when both were scheduled. The investigator performing the surgery and behavioral assessments was blinded to treatment assignment.
(§2) Limb placing test: Forelimb and hindlimb placement were assessed independently. For the forelimb placing test, the rats were held by their torso with their forepaws hanging free and moved slowly toward the edge of a tabletop, stopping short of touching the vibrissae (for vision-induced placing), touching the vibrissae (for vibrissae-induced placing), making light contact with the front of the forepaw to the edge of the tabletop (for tactile-induced placing), and pressing the forepaws to the edge of the table with increased pressure (for proprioceptive-induced placing). Hindlimb placing was conducted in the same manner as above but with tactile and proprioceptive stimulation applied to the front/top of each hindlimb. Each limb for placing in response to visual, vibrissae, tactile, and proprioceptive stimulation are scored in the following manner (A total of 12 points in forelimb placing test and 6 points in hindlimb placing test means maximal neurological deficit, and 0 points means normal performance):
(§3) Normal performance=0 points;
(§4) Performance with unilateral limb=1 point;
(§5) Performance with a delay (2 seconds) and/or incomplete=2 point;
(§6) All data were expressed as mean±standard deviation (S.D.) of ten rats. Multiple comparison tests for different dose groups were conducted. Variance homogeneity was examined using the Levene test (Levene A, Clin Otalary, 1981; 6:145-51). […] Statistical analyses were conducted using SPSS (Release 14K, SPSS Inc., USA; Ludbrook, Clin Exp Pharmacol Physiol, 1997; 24:294-6). In addition, the percent changes between neuron apoptosis control and mirodenafil treated rats were calculated to help the understanding of the efficacy of test material as follow equation 3. Percentage changes as compared with neuron apoptosis control (%)=[((Data of mirodenafil treated groups−Data of neuron apoptosis control)/Data of neuron apoptosis control)×100] [EQUATION 3]

[2] = test system: neuron apoptosis-operated rats; experiment: Example 1 hindlimb placing test; type: in vivo, Sprague-Dawley (SD) rats
Experimental: as §1, §2, §3, §4, §5, §6

[3] = 0.5 mg/kg group, day 1 after operation (before drug administration)
[4] = 0.5 mg/kg group, day −1 (baseline)
[5] = 0.5 mg/kg s.c. once a day, day 3 after operation
[6] = 0.5 mg/kg s.c. once a day, day 7 after operation
[7] = 0.5 mg/kg s.c. once a day, day 14 after operation
[8] = 0.5 mg/kg s.c. once a day, day 21 after operation
[9] = 0.5 mg/kg s.c. once a day, day 28 after operation
[10] = 0.5 mg/kg, 3 days after surgery
[11] = 0.5 mg/kg, 7 days after surgery
[12] = 0.5 mg/kg, 14 days after surgery
[13] = 0.5 mg/kg, 21 days after surgery
[14] = 0.5 mg/kg, 28 days after surgery
[15] = 1 mg/kg group, day 1 after operation (before drug administration)
[16] = 1 mg/kg group, day −1 (baseline)
[17] = 1 mg/kg s.c. once a day, day 3 after operation
[18] = 1 mg/kg s.c. once a day, day 7 after operation
[19] = 1 mg/kg s.c. once a day, day 14 after operation
[20] = 1 mg/kg s.c. once a day, day 21 after operation
[21] = 1 mg/kg s.c. once a day, day 28 after operation
[22] = 2 mg/kg group, day 1 after operation (before drug administration)
[23] = 2 mg/kg group, day −1 (baseline)
[24] = 2 mg/kg s.c. once a day, day 3 after operation
[25] = 2 mg/kg s.c. once a day, day 7 after operation
[26] = 2 mg/kg s.c. once a day, day 14 after operation
[27] = 2 mg/kg s.c. once a day, day 21 after operation
[28] = 2 mg/kg s.c. once a day, day 28 after operation

CCCOc1ccc(S(=O)(=O)N2CCN(CCO)CC2)cc1-c1nc2c(CCC)cn(CC)c2c(=O)[nH]1 [Mirodenafil, mirodenafil]
Forelimb placing test score [1, 3]: 12.00 ± 0.00^d | Forelimb placing test score [1, 4]: 0.70 ± 0.67 | Forelimb placing test score [1, 5]: 8.00 ± 1.15^a | Forelimb placing test score [1, 6]: 7.80 ± 1.55^a | Forelimb placing test score [1, 7]: 6.80 ± 1.14^ac | Forelimb placing test score [1, 8]: 6.40 ± 1.17^a | Forelimb placing test score [1, 9]: 5.40 ± 1.07^a | forelimb placing test scores, change as compared with neuron apoptosis control [1, 10]: −3.61% | forelimb placing test scores, change as compared with neuron apoptosis control [1, 11]: −10.34% | forelimb placing test scores, change as compared with neuron apoptosis control [1, 12]: −12.82% | forelimb placing test scores, change as compared with neuron apoptosis control [1, 13]: −11.11% | forelimb placing test scores, change as compared with neuron apoptosis control [1, 14]: −12.90% | Forelimb placing test score [1, 15]: 12.00 ± 0.00^d | Forelimb placing test score [1, 16]: 0.70 ± 0.48 | Forelimb placing test score [1, 17]: 6.80 ± 1.23^ab | Forelimb placing test score [1, 18]: 6.10 ± 1.20^ab | Forelimb placing test score [1, 19]: 5.30 ± 1.06^ab | Forelimb placing test score [1, 20]: 4.20 ± 1.23^ab | Forelimb placing test score [1, 21]: 2.70 ± 1.06^ab | forelimb placing test scores, change as compared with neuron apoptosis control ([1]; 1 mg/kg, 3 days after surgery): −18.07% | forelimb placing test scores, change as compared with neuron apoptosis control ([1]; 1 mg/kg, 7 days after surgery): −29.89% | forelimb placing test scores, change as compared with neuron apoptosis control ([1]; 1 mg/kg, 14 days after surgery): −32.05% | forelimb placing test scores, change as compared with neuron apoptosis control ([1]; 1 mg/kg, 21 days after surgery): −41.67% | forelimb placing test scores, change as compared with neuron apoptosis control ([1]; 1 mg/kg, 28 days after surgery): −56.45% | Forelimb placing test score [1, 22]: 12.00 ± 0.00^d | Forelimb placing test score [1, 23]: 0.60 ± 0.70 | Forelimb placing test score [1, 24]: 6.20 ± 0.92^ab | Forelimb placing test score [1, 25]: 5.70 ± 0.67^ab | Forelimb placing test score [1, 26]: 4.70 ± 0.67^ab | Forelimb placing test score [1, 27]: 4.10 ± 0.88^ab | Forelimb placing test score [1, 28]: 2.60 ± 0.84^ab | forelimb placing test scores, change as compared with neuron apoptosis control ([1]; 2 mg/kg, 3 days after surgery): −25.30% | forelimb placing test scores, change as compared with neuron apoptosis control ([1]; 2 mg/kg, 7 days after surgery): −34.48% | forelimb placing test scores, change as compared with neuron apoptosis control ([1]; 2 mg/kg, 14 days after surgery): −39.74% | forelimb placing test scores, change as compared with neuron apoptosis control ([1]; 2 mg/kg, 21 days after surgery): −43.06% | forelimb placing test scores, change as compared with neuron apoptosis control ([1]; 2 mg/kg, 28 days after surgery): −58.06% | Hindlimb placing test score [2, 3]: 6.00 ± 0.00^d | Hindlimb placing test score [2, 4]: 0.50 ± 0.71 | Hindlimb placing test score [2, 5]: 4.00 ± 0.82^a | Hindlimb placing test score [2, 6]: 3.20 ± 0.79^a | Hindlimb placing test score [2, 7]: 2.80 ± 0.63^d | Hindlimb placing test score [2, 8]: 2.60 ± 0.70^a | Hindlimb placing test score [2, 9]: 2.40 ± 0.97^a | hindlimb placing test scores, change as compared with neuron apoptosis control [2, 10]: −6.98% | hindlimb placing test scores, change as compared with neuron apoptosis control [2, 11]: −8.57% | hindlimb placing test scores, change as compared with neuron apoptosis control [2, 12]: −9.68% | hindlimb placing test scores, change as compared with neuron apoptosis control [2, 13]: −13.33% | hindlimb placing test scores, change as compared with neuron apoptosis control [2, 14]: −11.11% | Hindlimb placing test score [2, 15]: 6.00 ± 0.00^d | Hindlimb placing test score [2, 16]: 0.30 ± 0.48 | Hindlimb placing test score [2, 17]: 3.50 ± 0.71^ac | Hindlimb placing test score [2, 18]: 2.50 ± 0.71^ab | Hindlimb placing test score [2, 19]: 2.10 ± 0.57^df | Hindlimb placing test score [2, 20]: 1.70 ± 0.48^ab | Hindlimb placing test score [2, 21]: 1.10 ± 0.74^ab | hindlimb placing test scores, change as compared with neuron apoptosis control ([2]; 1 mg/kg, 3 days after surgery): −18.80% | hindlimb placing test scores, change as compared with neuron apoptosis control ([2]; 1 mg/kg, 7 days after surgery): −28.57% | hindlimb placing test scores, change as compared with neuron apoptosis control ([2]; 1 mg/kg, 14 days after surgery): −32.26% | hindlimb placing test scores, change as compared with neuron apoptosis control ([2]; 1 mg/kg, 21 days after surgery): −43.33% | hindlimb placing test scores, change as compared with neuron apoptosis control ([2]; 1 mg/kg, 28 days after surgery): −59.26% | Hindlimb placing test score [2, 22]: 6.00 ± 0.00^d | Hindlimb placing test score [2, 23]: 0.40 ± 0.52 | Hindlimb placing test score [2, 24]: 3.30 ± 0.67^ab | Hindlimb placing test score [2, 25]: 2.30 ± 0.82^ab | Hindlimb placing test score [2, 26]: 1.80 ± 1.03^de | Hindlimb placing test score [2, 27]: 1.60 ± 0.84^ab | Hindlimb placing test score [2, 28]: 1.10 ± 0.57^ab | hindlimb placing test scores, change as compared with neuron apoptosis control ([2]; 2 mg/kg, 3 days after surgery): −23.26% | hindlimb placing test scores, change as compared with neuron apoptosis control ([2]; 2 mg/kg, 7 days after surgery): −34.29% | hindlimb placing test scores, change as compared with neuron apoptosis control ([2]; 2 mg/kg, 14 days after surgery): −41.94% | hindlimb placing test scores, change as compared with neuron apoptosis control ([2]; 2 mg/kg, 21 days after surgery): −46.67% | hindlimb placing test scores, change as compared with neuron apoptosis control ([2]; 2 mg/kg, 28 days after surgery): −59.26%

From US10064865B2, “Composition comprising phosphodiesterase type 5 inhibitor for inhibiting apoptosis of nerve cells” (ARIBIO INC., priority 2012, dated 2018)
